Assay results published in patent US8426437B2, “Pyrroloquinoline derivatives and their use as protein kinases inhibitors” (Pierre Fabre Medicament, priority 2005, dated 2013).
Where a name gives a salt, the structure may show the parent alone.

Legend:
[1] = target: T1, RET (Homo sapiens, UniProt P07949); test: Inhibition of RET kinase activity, recombinant RET method (Kinase-Glo); format: biochemical; conditions: RET 2 μg/ml, poly-EY4 substrate, 20 μM ATP, two hours at 30° C.
T1 construct: purchased Upstate 14-570MG
In short: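 Recombinant RET at 2 μg/ml in 20 mM MOPS/NaOH pH 7.0, 1 mM EDTA, 5% glycerol, 0.01% Brij35, 0.1% 2-mercaptoethanol, 1 mg/ml BSA; compounds 10 nM–30 μM final.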

[2] = target: T2, PIM-1 (Homo sapiens, UniProt P11309); test: Inhibition of kinase PIM-1 (Kinase-Glo); format: biochemical; conditions: PIM-1 0.625 μg/ml, 10 μM ATP, forty minutes at 30° C.
T2 construct: purchased Upstate 14-573
Experimental: Protein PIM-1 (Upstate #14-573 batch 25864U) is incubated at a concentration of 0.625 μg/ml in a buffer containing 8 mM of MOPS/NaOH pH7, 0.2 mM EDTA, 5 mM MgAc (Sigma #229768), 0.01% Triton Tx100, in the presence of 70 μM of peptide substrate S6 Kinase/Rsk2 (Upstate #12-243), and 10 μM of ATP.
The dilution buffer for PIM-1 is as follows: 20 mM MOPS/NaOH pH7, 1 mM EDTA, 5% glycerol, 0.01% Brij35, 0.1% 2-mercapto, 1 mg/ml BSA
The compound to be tested is first added to the enzyme to give a reaction volume of 50 μl. The dilution of the compounds of the invention is distributed so as to obtain a scale of final concentrations between 10 nM and 30 μM.
After incubation of the reaction mixture for forty minutes at 30° C., the level of ATP that remains is assayed using the Kinase-Glo Luminescent Kinase Assay (Promega #V6712) according to the conditions recommended by the supplier. The luminescence induced is read in a plate reader (Envision-Perkin Elmer).

T1 sequence (P07949 29-1114): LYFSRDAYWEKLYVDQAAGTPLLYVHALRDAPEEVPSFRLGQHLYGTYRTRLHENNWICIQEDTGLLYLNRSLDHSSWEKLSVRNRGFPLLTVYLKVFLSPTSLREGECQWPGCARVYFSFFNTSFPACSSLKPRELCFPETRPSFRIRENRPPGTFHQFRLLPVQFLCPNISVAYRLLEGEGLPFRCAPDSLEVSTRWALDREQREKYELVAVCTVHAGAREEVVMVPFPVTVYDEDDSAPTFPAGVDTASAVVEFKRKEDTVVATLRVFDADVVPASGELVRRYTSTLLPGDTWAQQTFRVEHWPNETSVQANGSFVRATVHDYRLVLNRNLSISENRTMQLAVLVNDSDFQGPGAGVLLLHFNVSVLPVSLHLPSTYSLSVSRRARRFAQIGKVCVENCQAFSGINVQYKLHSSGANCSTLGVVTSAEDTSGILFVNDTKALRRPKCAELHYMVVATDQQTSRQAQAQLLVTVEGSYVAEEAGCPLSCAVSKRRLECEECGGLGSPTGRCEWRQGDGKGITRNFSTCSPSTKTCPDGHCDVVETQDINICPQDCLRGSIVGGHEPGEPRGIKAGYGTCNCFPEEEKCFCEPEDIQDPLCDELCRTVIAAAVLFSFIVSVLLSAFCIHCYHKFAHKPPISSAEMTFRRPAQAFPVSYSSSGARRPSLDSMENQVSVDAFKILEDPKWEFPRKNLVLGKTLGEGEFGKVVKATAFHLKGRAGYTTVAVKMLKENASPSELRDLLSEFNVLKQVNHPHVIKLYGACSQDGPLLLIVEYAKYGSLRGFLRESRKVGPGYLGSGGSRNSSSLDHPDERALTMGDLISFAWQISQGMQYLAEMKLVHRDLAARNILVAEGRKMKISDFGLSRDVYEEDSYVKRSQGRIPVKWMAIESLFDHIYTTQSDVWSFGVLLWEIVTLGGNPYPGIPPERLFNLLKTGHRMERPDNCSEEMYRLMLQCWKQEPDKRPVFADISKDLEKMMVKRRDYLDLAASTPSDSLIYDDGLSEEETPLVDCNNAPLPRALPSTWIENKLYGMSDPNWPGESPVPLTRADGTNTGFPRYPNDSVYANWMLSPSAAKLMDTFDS
T2 sequence (P11309 whole entry): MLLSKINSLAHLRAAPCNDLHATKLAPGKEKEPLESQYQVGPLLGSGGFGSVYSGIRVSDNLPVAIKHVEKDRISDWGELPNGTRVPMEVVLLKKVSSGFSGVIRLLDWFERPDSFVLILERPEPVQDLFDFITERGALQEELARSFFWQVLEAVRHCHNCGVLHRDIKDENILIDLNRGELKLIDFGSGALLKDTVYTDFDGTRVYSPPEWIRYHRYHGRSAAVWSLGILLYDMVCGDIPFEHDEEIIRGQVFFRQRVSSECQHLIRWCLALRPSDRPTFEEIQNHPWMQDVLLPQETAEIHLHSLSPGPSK

IC50 [1] | IC50 [2] | SMILES
100 to 1000 nM | 1000 to 10000 nM | CCOC(=O)c1c[nH]c2c(=O)[nH]c3ccc(S(=O)(=O)N(C)c4cccc(Cl)c4)cc3c12 [Compound 34, 8-[(3-Chlorophenyl)-methyl-sulfamoyl)-4-oxo-4,5-dihydro-3H-pyrrolo[2,3-c]quinoline-1-ethyl carboxylate]
1000 to 10000 nM | 10000 to 100000 nM | CCOC(=O)c1c[nH]c2c(=O)[nH]c3ccc(NC)cc3c12 [Compound 63, 8-Methylamino-4-oxo-4,5-dihydro-3H-pyrrolo[2,3-c]quinoline-1-ethyl carboxylate hydrochloride]
1000 to 10000 nM | 10000 to 100000 nM | CCOC(=O)c1c[nH]c2c(=O)[nH]c3ccc(N)cc3c12 [Compound 64, 8-Amino-4-oxo-4,5-dihydro-3H-pyrrolo[2,3-c]quinoline-1-ethyl carboxylate]
1000 to 10000 nM | 1000 to 10000 nM | CCOC(=O)c1c[nH]c2c(=O)[nH]c3ccc([N+](=O)[O-])cc3c12 [Compound 66, 8-Nitro-4-oxo-4,5-dihydro-3H-pyrrolo[2,3-c]quinoline-1-ethyl carboxy late]
1000 to 10000 nM | 1000 to 10000 nM | CCOC(=O)c1c[nH]c2c(=O)[nH]c3ccc(/C=C/c4ccccc4)cc3c12 [Compound 70, 4-Oxo-8-styryl-4,5-dihydro-3H-pyrrolo[2,3-c]quinoline-1-ethyl carboxylate]
100 to 1000 nM | 1000 to 10000 nM | CCOC(=O)c1c[nH]c2c(=O)[nH]c3ccc(Br)cc3c12 [Compound 71, 8-Bromo-4-oxo-4,5-dihydro-3H-pyrrolo[2,3-c]quinoline-1-ethyl carboxylate]
10000 to 100000 nM | 10000 to 100000 nM | CN(C)CCNC(=O)c1c[nH]c2c(=O)[nH]c3ccccc3c12 [Compound 79, N-(2-Dimethylamino-ethyl)-4-oxo-4,5-dihydro-3H-pyrrolo[2,3-c]quinoline-1-carboxamide]
1000 to 10000 nM | 10000 to 100000 nM | COC(=O)c1c[nH]c2c(=O)[nH]c3ccc(S(=O)(=O)N4CCN(C)CC4)cc3c12 [Compound 95, 8-(4-Methyl-piperazine-1-sulfonyl)-4-oxo-4,5-dihydro-3H-pyrrolo[2,3-c]quinoline-1-methyl carboxylate]
< 100 nM | 1000 to 10000 nM | O=C(OC1CCCC1)c1c[nH]c2c(=O)[nH]c3ccc(S(=O)(=O)NC4CCNCC4)cc3c12 [Compound 116, 4-Oxo-8-(piperidin-4-ylsulfamoyl)-4,5-dihydro-3H-pyrrolo[2,3-c]quinoline-1-cyclopentyl carboxylate]
100 to 1000 nM | 10000 to 100000 nM | O=C(OCC1CCOC1)c1c[nH]c2c(=O)[nH]c3ccc(S(=O)(=O)NC4CCNCC4)cc3c12 (stereo not drawn) [Compound 118, 4-Oxo-8-(piperidin-4-ylsulfamoyl)-4,5-dihydro-3H-pyrrolo[2,3-c]quinoline-1-methyltetrahydrofuran-3-yl carboxylate]
1000 to 10000 nM | 1000 to 10000 nM | CCOC(=O)c1c[nH]c2c(=O)[nH]c3ccc(S(=O)(=O)NCC4CCNCC4)cc3c12 [Compound 121, 4-Oxo-8-[(piperidin-4-ylmethyl)-sulfamoyl]-4,5-dihydro-3H-pyrrolo[2,3-c]quinoline-1-ethyl carboxylate]
100 to 1000 nM | 100 to 1000 nM | CCOC(=O)c1c[nH]c2c(=O)[nH]c3ccc(I)cc3c12 [Compound 209, 8-Iodo-4-oxo-4,5-dihydro-3H-pyrrolo[2,3-c]quinoline-1-ethyl carboxylate]
100 to 1000 nM | 1000 to 10000 nM | CCOC(=O)c1c[nH]c2c(=O)[nH]c3ccc(SC4CCCCC4)cc3c12 [Compound 221, 8-Cyclohexylsulfanyl-4-oxo-4,5-dihydro-3H-pyrrolo[2,3-c]quinoline-1-ethyl carboxylate]
100 to 1000 nM | 1000 to 10000 nM | CCOC(=O)c1c[nH]c2c(=O)[nH]c3ccc(SCc4ccccc4)cc3c12 [Compound 222, 8-Benzylsulfanyl-4-oxo-4,5-dihydro-3H-pyrrolo[2,3-c]quinoline-1-ethyl carboxylate]
100 to 1000 nM | 1000 to 10000 nM | CCOC(=O)c1c[nH]c2c(=O)[nH]c3ccc(-c4cccc(CNC)c4)cc3c12 [Compound 241, 8-(3-Methylaminomethyl-phenyl)-4-oxo-4,5-dihydro-3H-pyrrolo[2,3-c]quinoline-1-ethyl carboxylate]
100 to 1000 nM | 100 to 1000 nM | CCOC(=O)c1c[nH]c2c(=O)[nH]c3ccc(-c4ccc(N)cc4)cc3c12 [Compound 244, 8-(4-Aminophenyl)-4-oxo-4,5-dihydro-3H-pyrrolo[2,3-c]quinoline-1-ethyl carboxylate]

IC50 [1] | IC50 [2] | SMILES
1000 to 10000 nM |  | CCOC(=O)c1c[nH]c2c(=O)[nH]c3ccc(-c4cccnc4)cc3c12 [Compound 258, 4-Oxo-8-pyridin-3-yl-4,5-dihydro-3H-pyrrolo[2,3-c]quinoline-1-ethyl carboxylate]
1000 to 10000 nM | 1000 to 10000 nM | CCOC(=O)c1c[nH]c2c(=O)[nH]c3ccc(-c4ccc(Cl)nc4)cc3c12 [Compound 259, 8-(6-Chloro-pyridin-3-yl)-4-oxo-4,5-dihydro-3H-pyrrolo[2,3-c]quinoline-1-ethyl carboxylate]
1000 to 10000 nM |  | CCOC(=O)c1c[nH]c2c(=O)[nH]c3ccc(-c4ccc(OC)nc4)cc3c12 [Compound 260, 8-(6-Methoxy-pyridin-3-yl)-4-oxo-4,5-dihydro-3H-pyrrolo[2,3-c]quinoline-1-ethyl carboxylate]
100 to 1000 nM | 10000 to 100000 nM | CCOC(=O)c1c[nH]c2c(=O)[nH]c3ccc(-c4ccnc(N)n4)cc3c12 [Compound 261, 8-(2-Amino-pyrimidin-4-yl)-4-oxo-4,5-dihydro-3H-pyrrolo[2,3-c]quinoline-1-ethyl carboxylate]
1000 to 10000 nM | 1000 to 10000 nM | CCOC(=O)c1c[nH]c2c(=O)[nH]c3ccc(-c4ccnc(N(C)C)n4)cc3c12 [Compound 262, 8-(2-Dimethylamino-pyrimidin-4-yl)-4-oxo-4,5-dihydro-3H-pyrrolo[2,3-c]quinoline-1-ethyl carboxylate]
1000 to 10000 nM |  | CCOC(=O)c1c[nH]c2c(=O)[nH]c3ccc(-c4ccnc(N5CCN(c6ccccn6)CC5)n4)cc3c12 [Compound 265, 4-Oxo-8-[2-(4-pyridin-2-yl-piperazin-1-yl)-pyrimidin-4-yl]-4,5-dihydro-3H-pyrrolo[2,3-c]quinoline-1-ethyl carboxylate]
1000 to 10000 nM |  | CCOC(=O)c1c[nH]c2c(=O)[nH]c3ccc(-c4csc(Nc5ccccc5Cl)n4)cc3c12 [Compound 272, 8-[2-(2-Chlorophenylamino)-thiazol-4-yl]-4-oxo-4,5-dihydro-3H-pyrrolo[2,3-c]quinoline-1-ethyl carboxylate]
1000 to 10000 nM |  | CCOC(=O)c1c[nH]c2c(=O)[nH]c3ccc(-c4csc(Nc5ccc(Cl)c(Cl)c5)n4)cc3c12 [Compound 273, 8-[2-(3,4-Dichlorophenylamino)-thiazol-4-yl]-4-oxo-4,5-dihydro-3H-pyrrolo[2,3-c]quinoline-1-ethyl carboxylate]
10000 to 100000 nM |  | CCOC(=O)c1c[nH]c2c(=O)[nH]c3ccc(-c4csc(Nc5c(Cl)cccc5Cl)n4)cc3c12 [Compound 274, 8-[2-(2,6-Dichlorophenylamino)-thiazol-4-yl]-4-oxo-4,5-dihydro-3H-pyrrolo[2,3-c]quinoline-1-ethyl carboxylate]
100 to 1000 nM |  | CCOC(=O)c1c[nH]c2c(=O)[nH]c3ccc(-c4csc(NC(=O)C5CC5)n4)cc3c12 [Compound 275, 8-[2-(Cyclopropanecarbonyl-amino)-thiazol-4-yl]-4-oxo-4,5-dihydro-3H-pyrrolo[2,3-c]quinoline-1-ethyl carboxylate]
100 to 1000 nM |  | CCOC(=O)c1c[nH]c2c(=O)[nH]c3ccc(-c4csc(CSc5ccccc5)n4)cc3c12 [Compound 276, 4-Oxo-8-(2-phenylsulfanylmethyl-thiazol-4-yl)-4,5-dihydro-3H-pyrrolo[2,3-c]quinoline-1-ethyl carboxylate]
1000 to 10000 nM |  | CCOC(=O)c1c[nH]c2c(=O)[nH]c3ccc(-c4csc(C)n4)cc3c12 [Compound 278, 8-(2-Methyl-thiazol-4-yl)-4-oxo-4,5-dihydro-3H-pyrrolo[2,3-c]quinoline-1-ethyl carboxylate]
1000 to 10000 nM |  | CCOC(=O)c1c[nH]c2c(=O)[nH]c3ccc(-c4csc(-c5ccccc5)n4)cc3c12 [Compound 279, 4-Oxo-8-(2-phenyl-thiazol-4-yl)-4,5-dihydro-3H-pyrrolo[2,3-c]quinoline-1-ethyl carboxylate]
1000 to 10000 nM |  | CCOC(=O)c1c[nH]c2c(=O)[nH]c3ccc(-c4csc(NNc5ccccc5)n4)cc3c12 [Compound 280, 4-Oxo-8-[2-(N′-phenyl-hydrazino)-thiazol-4-yl]-4,5-dihydro-3H-pyrrolo[2,3-c]quinoline-1-ethyl carboxylate]
100 to 1000 nM |  | CCOC(=O)c1c[nH]c2c(=O)[nH]c3ccc(-c4ccno4)cc3c12 [Compound 281, 8-Isoxazol-5-yl-4-oxo-4,5-dihydro-3H-pyrrolo[2,3-c]quinoline-1-ethyl carboxylate]
100 to 1000 nM |  | CCOC(=O)c1c[nH]c2c(=O)[nH]c3ccc(-c4ccn(C)n4)cc3c12 [Compound 283, 8-(1-Methyl-1H-pyrazol-3-yl)-4-oxo-4,5-dihydro-3H-pyrrolo[2,3-c]quinoline-1-ethyl carboxylate]
